In general, IC50 refers to the concentration at which inhibition is half-maximal. By CLint scaled is commonly meant the capacity of the preparation to metabolise the compound, expressed as a volume cleared per time. Usually AUC(0-t) stands for the area under the concentration-time curve up to a stated or last time point. A low value points to low exposure.

Each structure is given as a SMILES string.

This is an account of results in patent US9512114B2, “Substituted aminopyrimidine compounds and methods of use” (Calitor Sciences, LLC, priority 2013, dated 2016).

The target in one data set is PI3K (p120γ) (h) (Homo sapiens (Human), UniProt P48736). As to the kind of experiment: PI3K (p120γ) (h) non-radioactive HTRF kinase assay. The settings on record: performed at Millipore UK Ltd. In kind it is biochemical. The procedure:
(§1) The above assay procedure can be used to determine the IC50 for inhibition and/or the inhibition constant, Ki.
PI3K (p120γ) (h) [Non-Radioactive Assay]
(§2) PI3K (p120γ) (h) is incubated in assay buffer containing 10 μM phosphatidylinositol-4, 5-bisphosphate and MgATP (concentration as required). The reaction is initiated by the addition of the MgATP mix. After incubation for 30 minutes at room temperature, the reaction is stopped by the addition of stop solution containing EDTA and biotinylated phosphatidylinositol-3,4,5-trisphosphate. Finally, detection buffer is added, which contains europium-labelled anti-GST monoclonal antibody, GST-tagged GRP1 PH domain and streptavidin-allophycocyanin. The plate is then read in timeresolved fluorescence mode and the homogenous time-resolved fluorescence (HTRF) signal is determined according to the formula HTRF=10000×(Em665 nm/Em620 nm).
(§3) The kinase assays described herein were performed at Millipore UK Ltd, Dundee Technology Park, Dundee DD2 1SW, UK.

Data set [1] can be described thus: Compound stability in human liver microsomes. Format: in vitro ADME. As to conditions: pH 7.4; for CLint scaled at 5 μM: liver microsomes, in vivo CLint extrapolated from human liver microsome incubation; for half-life at 5 μM: human liver microsomes 0.5 mg protein/mL, compound 5 μM, NADPH 1.0 mM, 37° C., read-out: Human T1/2. The procedure:
(§4) The LC/MS/MS system used in the analysis consists of an Agilent 1200 Series vacuum degasser, binary pump, well-plate autosampler, thermostatted column compartment, the Agilent G6430 Triple Quadrupole Mass Spectrometer with an electrosprayionization (ESI) source. Quantitative analysis was carried out using MRM mode. The parameters for MRM transitions are in the Table A.
(§5) An Agilent XDB-C18, 2.1×30 mm, […] column was used for the analysis. 5 μL of the samples were injected. Analysis condition: The mobile phase was 0.1% formic acid in water (A) and 0.1% formic acid in methanol (B). The flow rate was 0.4 mL/min. And the gradient of Mobile phase was in the Table B.
(§6) Alternatively, an Agilent 6330 series LC/MS/MS spectrometer equipped with G1312A binary pumps, a G1367A autosampler and a G1314C UV detector were used in the analysis. An ESI source was used on the LC/MS/MS spectrometer. The analysis was done in positive ion mode as appropriate and the MRM transition for each analyte was optimized using standard solution. A Capcell MP-C18 100×4.6 mm I.D., […] column (Phenomenex, Torrance, Calif., USA) was used during the analysis. The mobile phase was 5 mM ammonia acetate, 0.1% MeOH in water (A): 5 mM ammonia acetate, 0.1% MeOH in acetonitrile (B) (70:30, v/v). The flow rate was 0.6 mL/min. Column was maintained at ambient temperature. 20 μL of the samples were injected.
(§7) Human or rat liver microsomes incubations were conducted in duplicate in polypropylene tubes. The typical incubation mixtures consisted of human or rat liver microsomes (0.5 mg protein/mL), compounds of interest (5 μM) and NADPH (1.0 mM) in a total volume of 200 μL potassium phosphate buffer (PBS, 100 mM, pH 7.4). Compounds were dissolved in DMSO and diluted with PBS such that the final concentration of DMSO was 0.05%. The enzymatic reactions were commenced with the addition of protein after a 3-min preincubation and incubated in a water bath open to the air at 37° C. Reactions were terminated at various time points (0, 5, 10, 15, 30, 60 min) by adding equal volume of ice-cold acetonitrile. The samples were stored at −80° C. until LC/MS/MS assays.
(§8) The concentrations of compounds in the incubation mixtures of human or rat liver microsomes were determined by a LC/MS/MS method. The ranges of the linearity in the concentration range were determined for each tested compounds.
(§9) A parallel incubation was performed using denatured microsomes as the negative control, and reactions were terminated at various time points (0, 15, 60 min) after incubation at 37° C.
(§10) Dextromethorphan (70 μM) was selected as the positive control, and reactions were terminated at various time points (0, 5, 10, 15, 30, 60 min) after incubation at 37° C. Both positive and negative control samples were included in each assay to ensure the integrity of the microsomal incubation system.
(§11) The concentrations of compounds in human or rat liver microsome incubations were plotted as a percentage of the relevant zero time point control for each reaction. The in vivo CLint were extrapolated (ref.: Naritomi, Y.; Terashita, S.; Kimura, S.; Suzuki, A.; Kagayama, A.; and Sugiyama, Y.; Prediction of human hepatic clearance from in vivo animal experiments and in vitro metabolic studies with liver microsomes from animals and humans. Drug Metab. Dispos., 2001, 29: 1316-1324).

The target of a further data set is PI3K (p110α/p85α) (h) (Homo sapiens (Human), UniProt P42336). As to the kind of experiment: PI3K (p110α/p85α) (h) non-radioactive HTRF kinase assay. In kind it is biochemical. The settings on record: performed at Millipore UK Ltd. The procedure: as §1
PI3K (p110α/p85α) (h), sequence (P42336 whole entry): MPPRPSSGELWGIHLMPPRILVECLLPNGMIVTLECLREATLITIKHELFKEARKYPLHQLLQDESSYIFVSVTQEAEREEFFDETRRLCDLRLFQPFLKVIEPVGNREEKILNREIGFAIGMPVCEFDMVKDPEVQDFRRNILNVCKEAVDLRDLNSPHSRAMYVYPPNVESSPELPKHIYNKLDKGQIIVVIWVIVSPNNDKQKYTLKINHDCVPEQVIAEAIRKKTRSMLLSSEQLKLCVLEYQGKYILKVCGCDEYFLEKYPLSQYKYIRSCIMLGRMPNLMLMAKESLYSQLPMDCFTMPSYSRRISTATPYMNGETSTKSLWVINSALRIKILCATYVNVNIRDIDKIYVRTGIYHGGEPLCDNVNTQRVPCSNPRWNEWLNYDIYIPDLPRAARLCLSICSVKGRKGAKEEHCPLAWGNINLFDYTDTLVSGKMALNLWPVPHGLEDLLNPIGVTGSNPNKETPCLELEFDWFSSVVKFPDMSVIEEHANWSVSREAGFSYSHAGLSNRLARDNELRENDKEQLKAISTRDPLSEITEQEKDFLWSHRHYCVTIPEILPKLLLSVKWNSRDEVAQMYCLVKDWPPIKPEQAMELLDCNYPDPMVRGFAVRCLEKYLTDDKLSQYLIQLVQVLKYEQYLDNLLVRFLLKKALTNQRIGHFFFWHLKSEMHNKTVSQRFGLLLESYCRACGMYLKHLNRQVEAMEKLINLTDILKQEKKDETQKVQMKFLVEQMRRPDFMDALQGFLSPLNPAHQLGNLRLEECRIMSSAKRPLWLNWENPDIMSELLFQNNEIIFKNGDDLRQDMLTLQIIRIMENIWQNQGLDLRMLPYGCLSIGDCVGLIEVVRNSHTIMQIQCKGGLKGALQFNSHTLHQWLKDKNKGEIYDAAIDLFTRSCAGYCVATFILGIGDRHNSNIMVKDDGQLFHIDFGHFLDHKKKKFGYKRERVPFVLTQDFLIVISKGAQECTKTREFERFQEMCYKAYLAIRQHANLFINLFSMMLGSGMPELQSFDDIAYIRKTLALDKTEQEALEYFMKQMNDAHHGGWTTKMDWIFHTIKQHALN
PI3K (p110α/p85α) (h), sequence (P27986 whole entry partner): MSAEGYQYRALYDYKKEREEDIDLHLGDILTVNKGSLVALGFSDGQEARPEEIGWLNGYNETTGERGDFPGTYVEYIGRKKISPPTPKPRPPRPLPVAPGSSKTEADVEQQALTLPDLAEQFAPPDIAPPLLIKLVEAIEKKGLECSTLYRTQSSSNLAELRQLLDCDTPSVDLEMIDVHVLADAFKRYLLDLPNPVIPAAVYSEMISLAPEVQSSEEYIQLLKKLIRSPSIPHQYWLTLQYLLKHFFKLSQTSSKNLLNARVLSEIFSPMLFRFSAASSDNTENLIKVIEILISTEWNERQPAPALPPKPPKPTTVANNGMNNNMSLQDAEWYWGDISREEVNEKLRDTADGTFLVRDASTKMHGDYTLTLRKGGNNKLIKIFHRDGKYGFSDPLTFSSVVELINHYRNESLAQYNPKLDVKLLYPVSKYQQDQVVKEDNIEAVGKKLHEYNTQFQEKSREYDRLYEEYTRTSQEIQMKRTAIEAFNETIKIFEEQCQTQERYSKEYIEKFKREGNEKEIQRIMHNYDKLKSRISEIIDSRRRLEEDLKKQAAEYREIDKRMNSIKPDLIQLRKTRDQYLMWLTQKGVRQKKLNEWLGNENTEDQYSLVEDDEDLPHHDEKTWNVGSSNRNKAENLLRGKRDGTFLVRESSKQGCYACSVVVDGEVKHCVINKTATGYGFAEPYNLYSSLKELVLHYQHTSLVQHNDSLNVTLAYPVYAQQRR
PI3K (p110α/p85α) (h) [Non-Radioactive Assay]
as §2, with “(p110α/p85α)” for “(p120γ)”, “phosphatidylinositol 4,5-bisphosphate” for “phosphatidylinositol-4, 5-bisphosphate”, “ATP solution.” for “MgATP mix.”, “streptavidin allophycocyanin.” for “streptavidin-allophycocyanin.”
as §3
For orientation: In TR-FRET formats the signal depends on donor and acceptor labels being close together.

Data set [2] can be described thus: Compound stability in rat liver microsomes. Format: in vitro ADME. The settings on record: pH 7.4; for CLint scaled at 5 μM: liver microsomes, in vivo CLint extrapolated from rat liver microsome incubation; for half-life at 5 μM: rat liver microsomes 0.5 mg protein/mL, compound 5 μM, NADPH 1.0 mM, 37° C., read-out: Rat T1/2. The procedure:
as §4, §5, §6, §7, §8, §9, §10, §11

A further data set deals with PI3K (p110δ/p85α) (h) (Homo sapiens (Human), UniProt O00329). The experiment in a line: PI3K (p110δ/p85α) (h) non-radioactive HTRF kinase assay. The settings on record: performed at Millipore UK Ltd. In kind it is biochemical. The procedure: as §1
PI3K (p110δ/p85α) (h), sequence (O00329 whole entry): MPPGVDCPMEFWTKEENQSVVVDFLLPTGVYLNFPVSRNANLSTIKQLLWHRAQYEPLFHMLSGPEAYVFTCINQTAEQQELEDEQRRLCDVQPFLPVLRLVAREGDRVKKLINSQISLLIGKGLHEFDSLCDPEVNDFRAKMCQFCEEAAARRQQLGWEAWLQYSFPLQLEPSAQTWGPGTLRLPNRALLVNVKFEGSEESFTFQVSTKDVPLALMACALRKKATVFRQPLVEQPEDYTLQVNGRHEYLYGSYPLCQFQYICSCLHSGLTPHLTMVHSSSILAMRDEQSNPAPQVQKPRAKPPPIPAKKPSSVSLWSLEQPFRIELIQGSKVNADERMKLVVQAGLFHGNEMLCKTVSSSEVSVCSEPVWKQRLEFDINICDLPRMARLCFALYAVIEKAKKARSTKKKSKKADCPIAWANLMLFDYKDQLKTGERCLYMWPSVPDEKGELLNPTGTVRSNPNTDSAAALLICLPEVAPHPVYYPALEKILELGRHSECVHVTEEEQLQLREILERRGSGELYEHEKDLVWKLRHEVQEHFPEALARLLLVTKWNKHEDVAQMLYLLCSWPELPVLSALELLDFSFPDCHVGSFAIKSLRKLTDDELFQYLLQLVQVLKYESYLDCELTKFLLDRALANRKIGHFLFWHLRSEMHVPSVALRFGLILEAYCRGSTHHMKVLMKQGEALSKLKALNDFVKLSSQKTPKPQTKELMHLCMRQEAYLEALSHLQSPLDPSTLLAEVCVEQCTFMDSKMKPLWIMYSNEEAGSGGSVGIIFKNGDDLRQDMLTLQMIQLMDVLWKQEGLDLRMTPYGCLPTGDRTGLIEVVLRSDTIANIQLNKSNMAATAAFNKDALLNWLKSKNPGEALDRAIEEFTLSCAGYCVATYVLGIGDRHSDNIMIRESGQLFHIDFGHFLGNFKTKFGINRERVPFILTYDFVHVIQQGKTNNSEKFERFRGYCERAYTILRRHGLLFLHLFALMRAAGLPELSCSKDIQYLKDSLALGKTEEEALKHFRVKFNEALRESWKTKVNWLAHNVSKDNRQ
PI3K (p110δ/p85α) (h), sequence (P27986 whole entry partner): as the sequence (P27986 whole entry partner) above
PI3K (p110δ/p85α) (h) [Non-Radioactive Assay]
as §2, with “(p110δ/p85α)” for “(p120γ)”
as §3

Data set [3] in a line: Pharmacokinetic profiles in rats. In kind it is in vivo, rat. As to conditions: for Cl/F / AUC(0-t) / half-life / Vd: iv dosing 1 mg/kg; for F: oral vs iv (iv 1 mg/kg; p.o. generally 5 or 10 mg/kg); for AUC(0-t) / half-life / Vd: rat, plasma; for Vd: read-out: Vss. The procedure: The compounds disclosed herein are assessed in pharmacokinetic studies in mice, rats, dogs or monkeys. The compounds are administered as a water solution, 2% HPMC+1% TWEEN®80 in water solution, 5% DMSO+5% solutol in saline, 4% MC suspension or capsule. For the intravenous administration, the animals are generally given at 1 or 2 mg/kg dose. For the oral (p.o.) dosing, mice and rats are generally given 5 or 10 mg/kg dose, and dogs and monkeys are generally given 10 mg/kg dose. The blood samples (0.3 mL) are drawn at 0.25, 0.5, 1.0, 2.0, 3.0, 4.0, 6.0, 8.0, 12 and 24 h time points or 0.083, 0.25, 0.5, 1.0, 2.0, 4.0, 6.0, 8.0 and 24 h time points and centrifuged at 3,000 or 4000 rpm for 2 to 10 min. The plasma solutions are collected, stored at −20° C. or −70° C. until analyzed by LC/MS/MS as described above.

PI3K (p120γ) (h), sequence (P48736 whole entry): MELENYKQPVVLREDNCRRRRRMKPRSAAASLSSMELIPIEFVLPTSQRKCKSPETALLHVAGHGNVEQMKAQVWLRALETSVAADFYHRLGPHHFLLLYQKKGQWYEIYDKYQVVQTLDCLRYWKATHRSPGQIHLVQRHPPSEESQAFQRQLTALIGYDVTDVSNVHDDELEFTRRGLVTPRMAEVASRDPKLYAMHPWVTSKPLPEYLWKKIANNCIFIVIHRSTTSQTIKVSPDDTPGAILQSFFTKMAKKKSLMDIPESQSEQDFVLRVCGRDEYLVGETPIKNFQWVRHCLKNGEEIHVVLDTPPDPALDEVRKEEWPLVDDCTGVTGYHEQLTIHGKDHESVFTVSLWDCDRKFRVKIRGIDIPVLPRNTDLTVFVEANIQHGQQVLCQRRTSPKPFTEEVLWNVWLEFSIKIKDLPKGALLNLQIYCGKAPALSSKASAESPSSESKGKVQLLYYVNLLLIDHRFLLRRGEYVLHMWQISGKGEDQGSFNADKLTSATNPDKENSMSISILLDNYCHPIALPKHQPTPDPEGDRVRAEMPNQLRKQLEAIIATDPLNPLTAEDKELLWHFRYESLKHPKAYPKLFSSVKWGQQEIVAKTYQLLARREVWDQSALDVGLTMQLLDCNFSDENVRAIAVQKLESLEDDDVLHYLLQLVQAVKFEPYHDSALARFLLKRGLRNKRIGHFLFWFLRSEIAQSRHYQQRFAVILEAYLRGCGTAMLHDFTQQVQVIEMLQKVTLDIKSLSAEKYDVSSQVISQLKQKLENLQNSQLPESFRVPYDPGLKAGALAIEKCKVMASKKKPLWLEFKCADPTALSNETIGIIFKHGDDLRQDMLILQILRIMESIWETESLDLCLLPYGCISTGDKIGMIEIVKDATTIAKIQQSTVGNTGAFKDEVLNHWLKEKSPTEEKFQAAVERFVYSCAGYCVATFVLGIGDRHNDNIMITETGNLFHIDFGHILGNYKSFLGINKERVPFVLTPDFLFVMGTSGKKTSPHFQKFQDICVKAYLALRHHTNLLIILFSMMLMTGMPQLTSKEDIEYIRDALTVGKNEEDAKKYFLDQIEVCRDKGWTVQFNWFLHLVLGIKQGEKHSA

In the case of `Cc1nc(-c2c(N)ncnc2N[C@@H](C)c2cc3cccc(Cl)c3c(=O)n2C2CC2)no1` [Ex. 11, (S)-3-(1-((6-amino-5-(5-methyl-1,2,4-oxadiazol-3-yl)pyrimidin-4-yl)amino)ethyl)-8-chloro-2-cyclopropylisoquinolin-1(2H)-one], the values for the IC50 on PI3K (p120γ) (h), on PI3K (p110α/p85α) (h) and at PI3K (p110δ/p85α) (h) were 0.375 µM, 1.48 µM and 0.013 µM, respectively. Moreover, the CLint scaled at 5 μM in data set [1] was 545 mL/min/kg; in data set [2] it was 317 mL/min/kg. For the same compound, the figures for the half-life at 5 μM in data set [1] and in data set [2] were 3.19 min and 7.83 min, respectively.

As for `C[C@H](Nc1ncnc(N)c1-c1ncn(C)n1)c1cc2cccc(Cl)c2c(=O)n1C1CC1` [Ex. 16, (S)-3-(1-((6-amino-5-(1-methyl-1H-1,2,4-triazol-3-yl)pyrimidin-4-yl)amino)ethyl)-8-chloro-2-cyclopropylisoquinolin-1(2H)-one], in data set [3], the Cl/F is 89.3 mL/min/kg, the F was found to be 11.44%, the AUC(0-t) is 186 ng·h/mL and the half-life was 36.6 min. For the same compound, the Vd in data set [3] was found to be 2.94 L/kg. In addition, in data set [1], the CLint scaled at 5 μM was 219 mL/min/kg and the half-life at 5 μM worked out at 7.92 min. Also, in data set [2], the CLint scaled at 5 μM was 173 mL/min/kg and the half-life at 5 μM was determined as 14.3 min. Further, the IC50 at PI3K (p110δ/p85α) (h) was 0.19 µM.

In data set [3], `CC[C@H](Nc1ncnc(N)c1-c1noc(C)n1)c1cc2cccc(F)c2c(=O)n1-c1ccccc1` [Ex. 18, (S)-3-(1-((6-amino-5-(5-methyl-1,2,4-oxadiazol-3-yl)pyrimidin-4-yl)amino)propyl)-8-fluoro-2-phenylisoquinolin-1(2H)-one] gave a Cl/F of 51.7 mL/min/kg, an F of 38.15%, an area under the curve AUC(0-t) of 323 ng·h/mL and a half-life of 46.5 min. Further, in data set [3], the Vd is 1.66 L/kg. Further, in data set [1], the intrinsic metabolic clearance (CLint scaled) at 5 μM was 226 mL/min/kg and the half-life at 5 μM was found to be 7.7 min. In addition, in data set [2], the CLint scaled at 5 μM is 330 mL/min/kg and the half-life at 5 μM was 7.53 min. Further, the half-maximal inhibitory concentration (IC50) on PI3K (p110δ/p85α) (h) was 0.032 µM.

Turning to `CCc1noc(-c2c(N)ncnc2N[C@@H](CC)c2cc3cccc(Cl)c3c(=O)n2C2CC2)n1` [Ex. 22, (S)-3-(1-((6-amino-5-(3-ethyl-1,2,4-oxadiazol-5-yl)pyrimidin-4-yl)amino)propyl)-8-chloro-2-cyclopropylisoquinolin-1(2H)-one], in data set [3], the Cl/F worked out at 99.8 mL/min/kg, the F is given as 16.23%, the AUC(0-t) stood at 167 ng·h/mL and the half-life is 79.2 min. Besides, the Vd in data set [3] was determined as 6.07 L/kg. Also, in data set [1], the CLint scaled at 5 μM was 138 mL/min/kg and the half-life at 5 μM amounted to 12.6 min. In data set [2], the intrinsic metabolic clearance (CLint scaled) at 5 μM was 259 mL/min/kg and the half-life at 5 μM was determined as 9.58 min. Besides, the IC50 at PI3K (p110δ/p85α) (h) was determined as 0.003 µM.

`Cc1noc(-c2c(N)ncnc2N[C@@H](C)c2cc3cccc(Cl)c3c(=O)n2C2CC2)n1` [Ex. 24, (S)-3-(1-((6-amino-5-(3-methyl-1,2,4-oxadiazol-5-yl)pyrimidin-4-yl)amino)ethyl)-8-chloro-2-cyclopropylisoquinolin-1(2H)-one]: the IC50 on PI3K (p120γ) (h) came out at 0.015 µM. In data set [3], this compound showed a Cl/F of 120 mL/min/kg, an F of 12.28%, an AUC(0-t) of 139 ng·h/mL and a half-life of 45 min. Moreover, in data set [3], the Vd is 5.46 L/kg. In data set [1], the CLint scaled at 5 μM is 114 mL/min/kg and the half-life at 5 μM is 15.3 min. The IC50 at PI3K (p110α/p85α) (h) is 0.307 µM. In data set [2], the CLint scaled at 5 μM was 190 mL/min/kg and the half-life at 5 μM came to 13.1 min. The IC50 on PI3K (p110δ/p85α) (h) stood at 0.003 µM.
